According to patent US9217012B2, “Inhibitors of protein tyrosine phosphatases” (Indiana University Research and Technology Corporation, priority 2009, dated 2015):
Read-outs that look alike come from different tables or passages of the source. Where a SMILES comes first, the peptide text is derived from it. [ ]: non-standard residue; d: D form. F2Pmp = N[CH](Cc1ccc(C(F)(F)P(=O)(O)O)cc1)C(=O)O

Assays:
[1] = target: TC-PTP (Homo sapiens (Human), UniProt P17706); experiment: PTP activity assay with pNPP substrate, TC-PTP; assay type: biochemical; settings: for IC50: read-out: IC50 for TC-PTP
Sequence of TC-PTP (P17706 whole entry): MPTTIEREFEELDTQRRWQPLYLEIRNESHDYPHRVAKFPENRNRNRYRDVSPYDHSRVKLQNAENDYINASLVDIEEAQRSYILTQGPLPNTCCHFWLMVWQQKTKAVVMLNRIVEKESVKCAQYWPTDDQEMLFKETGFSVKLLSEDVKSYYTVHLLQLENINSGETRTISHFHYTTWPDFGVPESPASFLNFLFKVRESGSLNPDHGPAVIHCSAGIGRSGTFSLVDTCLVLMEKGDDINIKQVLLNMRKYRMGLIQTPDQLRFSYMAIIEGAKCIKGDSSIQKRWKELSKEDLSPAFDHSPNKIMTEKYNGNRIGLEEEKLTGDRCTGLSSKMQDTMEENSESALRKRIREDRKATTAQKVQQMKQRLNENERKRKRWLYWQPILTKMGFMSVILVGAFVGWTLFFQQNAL
Procedure: (§1) The PTP activity was assayed using p-nitrophenyl phosphate (pNPP) as a substrate in DMG buffer at 25° C. […] The reaction rate was measure using a SPECTRAMAX microplate spectrophotometer (Molecular Devices). For the determination of Km, the initial velocity and substrate concentration data were fitted to Michaelis-Menten equation using SIGMAPLOT. […] The assays were performed in 96-well plates. […] The reaction rate was measured using a Spectra Max Plus 384 Microplate Spectrophotometer (Molecular Devices). […] The reactions were incubated at room temperature for 30 min and quenched with 5N NaOH. The absorbance at 405 nm was read on the SpectraMax Plus 384 Microplate Spectrophotometer. For the reversibility test, the enzyme was incubated with the inhibitor at room temperature for 30 min before pNPP was added to initiate the reaction. The reaction was then incubated at room temperature for 30 min and quenched and read. […] Data were fitted using SigmaPlot Enzyme Kinetics Module (Systat Software, Inc.)

[2] = target: PTP1B (Homo sapiens (Human), UniProt P18031); experiment: PTP activity assay with pNPP substrate, PTP1B; assay type: biochemical
Sequence of PTP1B (P18031 whole entry, species assumed): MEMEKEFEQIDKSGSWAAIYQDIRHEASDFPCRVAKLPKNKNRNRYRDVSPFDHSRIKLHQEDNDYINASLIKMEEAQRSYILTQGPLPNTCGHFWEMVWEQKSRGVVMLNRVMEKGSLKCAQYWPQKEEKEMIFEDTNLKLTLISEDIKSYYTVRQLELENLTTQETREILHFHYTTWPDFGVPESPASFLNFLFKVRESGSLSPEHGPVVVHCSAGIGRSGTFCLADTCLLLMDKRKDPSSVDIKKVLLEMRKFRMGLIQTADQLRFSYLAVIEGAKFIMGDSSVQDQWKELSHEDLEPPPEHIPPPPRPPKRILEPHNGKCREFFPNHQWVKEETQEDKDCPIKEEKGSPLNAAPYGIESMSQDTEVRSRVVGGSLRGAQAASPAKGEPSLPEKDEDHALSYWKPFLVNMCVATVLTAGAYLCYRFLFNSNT
Procedure: as §1

[3] = 2 mM pNPP, DMG buffer, 25° C., Table 1

Row | Compound | IC50 [1, 3] | IC50 [2, 3] | IC50 ([1]; known competitive ligand) | IC50 ([2]; known competitive ligand) | selectivity for TC-PTP over PTP1B ([1]; TC-PTP versus PTP1B) | fold lower TC-PTP IC50 than parent compound 4 ([1]; relative to compound 4)
1 | CC(=O)NCCCCC(NC(=O)C(Cc1ccc(C(F)(F)P(=O)(O)O)cc1)NC(C)=O)C(N)=O (centres unmarked) [Compound 4] (Ac-[F2Pmp]-Lys(Ac)-NH2; configuration not given here) | 2 µM | 2 µM |  |  |  | 
2 | O=C(N[C@@H](Cc1ccc(C(F)(F)P(=O)(O)O)cc1)C(=O)O)OCC1c2ccccc2-c2ccccc21 [Fmoc-F2Pmp-OH, reference compound] |  |  | 20 µM | 20 µM |  | 
3 | CCc1ccc(C(=O)NCCCCC(NC(=O)C(Cc2ccc(C(F)(F)P(=O)(O)O)cc2)NC(C)=O)C(N)=O)cc1 (centres unmarked) [Compound 6] | 0.16 ± 0.02 µM | 0.7 ± 0.02 µM |  |  | 4.4 fold | 12.5 fold
